Results reported in article PMC7403315, “Cyclic peptide FXII inhibitor provides safe anticoagulation in a thrombosis model and in artificial lungs” (Nature Communications, 2020).
“And” between values parts separate entries of the source, which are not always exact repeats. Identical values can stand only once.

Experiments:
Format in all cases: biochemical
Recombinant mouse FXII = biological target: T1, Recombinant mouse FXII (Mus musculus, UniProt Q80YC5); experiment: Inhibition of recombinant FXIIa (rFXIIa); settings: Recombinant mouse FXII, individual plates, read-out: Residual activity (%)
T1 sequence (Q80YC5 355-597 limits assumed): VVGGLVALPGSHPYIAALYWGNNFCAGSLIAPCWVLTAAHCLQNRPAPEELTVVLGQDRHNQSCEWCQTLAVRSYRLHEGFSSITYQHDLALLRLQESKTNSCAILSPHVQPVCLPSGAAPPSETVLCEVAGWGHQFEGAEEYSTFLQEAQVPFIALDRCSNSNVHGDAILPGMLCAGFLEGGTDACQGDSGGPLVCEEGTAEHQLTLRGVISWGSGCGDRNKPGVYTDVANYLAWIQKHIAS
T1 sequence (Q80YC5 20-354 limits assumed): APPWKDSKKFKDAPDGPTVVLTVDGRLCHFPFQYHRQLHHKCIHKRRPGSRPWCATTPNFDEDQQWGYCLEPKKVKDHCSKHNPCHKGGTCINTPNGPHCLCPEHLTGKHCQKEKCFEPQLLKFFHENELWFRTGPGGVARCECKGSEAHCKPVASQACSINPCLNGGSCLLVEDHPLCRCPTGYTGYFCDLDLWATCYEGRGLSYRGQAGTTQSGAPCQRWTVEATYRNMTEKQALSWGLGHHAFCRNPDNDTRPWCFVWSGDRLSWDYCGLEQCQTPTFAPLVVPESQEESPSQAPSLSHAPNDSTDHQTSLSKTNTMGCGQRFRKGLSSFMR

human β-FXIIa = biological target: T2, human β-FXIIa (Homo sapiens, UniProt P00748); experiment: FXIIa protease inhibition assay with fluorogenic substrate Boc-Gln-Gly-Arg-AMC
T2 construct: human β-FXIIa (Molecular Innovations cat #); purchased Molecular Innovations HFXIIAB; host or cells: human blood
Method in brief: (§1)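 Mouse α-FXIIa or human β-FXIIa (0.4 nM final) was preincubated with bicyclic peptide for 10 min at 25 °C in Tris-Cl buffer with 1% DMSO. Residual activity was then read over 30 min with 50 µM Boc-Gln-Gly-Arg-AMC (ex 368/em 467 nm). IC50 came from sigmoidal fits, and Ki was derived by Cheng-Prusoff.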

Mouse α-FXIIa = biological target: T3, Mouse α-FXIIa (Mus musculus, UniProt Q80YC5); experiment: as above
T3 construct: Mouse α-FXIIa; purchased Molecular Innovations MFXIIA
T3 sequence (Q80YC5 355-597 limits assumed): T1 sequence (Q80YC5 355-597 limits assumed)
T3 sequence (Q80YC5 20-354 limits assumed): T1 sequence (Q80YC5 20-354 limits assumed)
Method in brief: as §1

[1] = crude, coumarin labeled peptides, individual plates

T2 sequence (P00748 373-615 limits assumed, other chains not shown): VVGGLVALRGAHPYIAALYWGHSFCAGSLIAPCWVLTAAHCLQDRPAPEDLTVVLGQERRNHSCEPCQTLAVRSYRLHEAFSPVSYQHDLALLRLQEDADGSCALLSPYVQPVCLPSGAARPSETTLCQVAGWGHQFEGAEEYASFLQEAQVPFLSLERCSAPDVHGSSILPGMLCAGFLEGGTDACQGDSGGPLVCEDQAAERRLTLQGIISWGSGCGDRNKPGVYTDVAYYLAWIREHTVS

remaining activity at 0.000390625 µM (Recombinant mouse FXII; peptide 0.390625 nM): 97.5% | remaining activity at 0.00078125 µM (Recombinant mouse FXII; peptide 0.78125 nM): 99% | remaining activity at 0.0015625 µM (Recombinant mouse FXII; peptide 1.5625 nM): 99.1% | remaining activity at 0.003125 µM (Recombinant mouse FXII; peptide 3.125 nM): 96.3% | remaining activity at 0.00625 µM (Recombinant mouse FXII; peptide 6.25 nM): 94% | remaining activity at 0.0125 µM (Recombinant mouse FXII; peptide 12.5 nM): 90.3% | remaining activity at […] (Recombinant mouse FXII; peptide 25 nM): 81.9% | remaining activity at 0.05 µM (Recombinant mouse FXII; peptide 50 nM): 69.1% | remaining activity at 0.1 µM (Recombinant mouse FXII; peptide 100 nM): 53% | remaining activity at 0.2 µM (Recombinant mouse FXII; peptide 200 nM): 35.9% | remaining activity at 0.4 µM (Recombinant mouse FXII; peptide 400 nM): 22.6% | IC50 (human β-FXIIa; [1]): 18.4 nM and 23.5 nM and 23.3 nM and 27.9 nM | Residual activity of human FXIIa (human β-FXIIa; inhibitor 0.488281 nM, 0.000488281 µM): 96.6624% and 92.9553% | remaining activity at 0.000488281 µM (human β-FXIIa; inhibitor 0.488281 nM, read-out: Residual activity of human FXIIa): 98.6% | Residual activity of human FXIIa (human β-FXIIa; inhibitor 1.95312 nM, 0.00195312 µM): 84.5129% and 82.3772% | remaining activity at 0.00195312 µM (human β-FXIIa; inhibitor 1.95312 nM, read-out: Residual activity of human FXIIa): 85.8% | Residual activity of human FXIIa (human β-FXIIa; inhibitor 3.90625 nM, 0.00390625 µM): 70.1534% and 69.6521% | remaining activity at 0.00390625 µM (human β-FXIIa; inhibitor 3.90625 nM, read-out: Residual activity of human FXIIa): 75.7% | Residual activity of human FXIIa (human β-FXIIa; inhibitor 7.8125 nM, 0.0078125 µM): 55.0198% and 53.6523% | remaining activity at 0.0078125 µM (human β-FXIIa; inhibitor 7.8125 nM, read-out: Residual activity of human FXIIa): 59.1% | Residual activity of human FXIIa (human β-FXIIa; inhibitor 15.625 nM, 0.015625 µM): 36.7931% and 38.5109% | remaining activity at 0.015625 µM (human β-FXIIa; inhibitor 15.625 nM, read-out: Residual activity of human FXIIa): 39.2% | Residual activity of human FXIIa (human β-FXIIa; inhibitor 31.25 nM, 0.03125 µM): 21.9721% and 22.4384% | remaining activity at 0.03125 µM (human β-FXIIa; inhibitor 31.25 nM, read-out: Residual activity of human FXIIa): 24.9% | Residual activity of human FXIIa (human β-FXIIa; inhibitor 62.5 nM, 0.0625 µM): 12.1968% and 13.3118% | remaining activity at 0.0625 µM (human β-FXIIa; inhibitor 62.5 nM, read-out: Residual activity of human FXIIa): 14% | Residual activity of human FXIIa (human β-FXIIa; inhibitor 125 nM, 0.125 µM): 6.613% and 11.4379% | remaining activity at 0.125 µM (human β-FXIIa; inhibitor 125 nM, read-out: Residual activity of human FXIIa): 7.65% | remaining activity at […] (human β-FXIIa; inhibitor 250 nM, read-out: Residual activity of human FXIIa): 3.83% | Residual activity of human FXIIa (human β-FXIIa; inhibitor 500 nM, 0.5 µM): 2.542% and 2.502% | remaining activity at 0.5 µM (human β-FXIIa; inhibitor 500 nM, read-out: Residual activity of human FXIIa): 2.52% | Residual activity of human FXIIa (human β-FXIIa; inhibitor 0.976562 / 0.976563 nM, 0.000976563 µM): 92.5507% and 90.2369% | remaining activity at 0.000976563 µM (human β-FXIIa; inhibitor 0.976562 / 0.976563 nM, read-out: Residual activity of human FXIIa): 96.2% | Ki (human β-FXIIa; purified peptide without coumarin label, read-out: Ki human FXIIa): 8.1 ± 0.7 nM | IC50 (Mouse α-FXIIa; [1]): 290 nM and 312 nM and 236 nM and 289 nM and 257 nM and 228 nM and 245 nM and 286 nM and 358 nM | Ki (Mouse α-FXIIa; purified peptide without coumarin label, read-out: Ki mouse FXIIa): 86 ± 9 nM
SMILES: CC(C)C[C@@H]1NC(=O)[C@H](CCC(N)=O)NC(=O)[C@H](CCCNC(=N)N)NC(=O)[C@@H]2CSCCC(=O)N3CN(CN(C3)C(=O)CCSC[C@H](NC(=O)[C@@H](N)CCCNC(=N)N)C(=O)N[C@@H](Cc3ccccc3)C(=O)N[C@@H](CCCNC(=N)N)C(=O)N[C@@H](CC(C)C)C(=O)N3CCC[C@H]3C(=O)N2)C(=O)CCSC[C@@H](C(=O)N[C@@H](CCCNC(=N)N)C(N)=O)NC(=O)[C@H](CCCNC(=N)N)NC1=O [FXII618]
